# Measurements reported in ChEMBL document CHEMBL1147499, “Chain-branched 1,3-dibenzylthioureas as vanilloid receptor 1 antagonists” (Bioorg Med Chem Lett, 2004).
# Experiments:
# Rattus norvegicus [1] = species: Rattus norvegicus; experiment: Effective concentration of compound to induce 45 [Ca2+] influx in neonatal rat cultured spinal sensory neurons; format: functional
# Rattus norvegicus [2] = species: Rattus norvegicus; experiment: Inhibitory concentration of compound against 45 [Ca2+] influx in neonatal rat cultured spinal sensory neurons; format: functional
Structure (SMILES),EC50 (Rattus norvegicus [1]) [µM],IC50 (Rattus norvegicus [2]) [µM]
CC(=O)Nc1ccc([C@@H](C)/N=C(\S)NCc2ccc(C(C)(C)C)cc2)cc1,> 100,3.6
C[C@@H](/N=C(\S)NCc1ccc(C(C)(C)C)cc1)c1ccc([N+](=O)[O-])cc1,> 100,0.58
Cc1ccc(C(C)/N=C(\S)NCc2ccc(C(C)(C)C)cc2)cc1 (centres undefined),> 100,0.4
C[C@@H](NC(=S)NCc1ccc(C(C)(C)C)cc1)c1ccc(NS(C)(=O)=O)cc1,> 100,0.05
CCCC(/N=C(\S)NCc1ccc(C(C)(C)C)cc1)c1ccc(NS(C)(=O)=O)cc1 (centres undefined),> 100,1.49
C[C@H](/N=C(\S)NCc1ccc(C(C)(C)C)cc1)c1ccccc1,> 100,25.5
C[C@@H](/N=C(\S)NCc1ccc(C(C)(C)C)cc1)c1ccccc1,> 100,4.96
C[C@H](/N=C(\S)NCc1ccc(C(C)(C)C)cc1)c1ccc([N+](=O)[O-])cc1,> 100,14.7
CC(C)(C)c1ccc(CNC(=S)NCc2ccc(NS(C)(=O)=O)cc2)cc1,> 100,–
Oc1cc2c(cc1O)CN(C(=S)NCCc1ccc(Cl)cc1)CCC2 [CAPSAZEPINE],> 100,–
C[C@H](/N=C(\S)NCc1ccc(C(C)(C)C)cc1)c1ccc(NS(C)(=O)=O)cc1,> 100,1.47
CC(/N=C(\S)NCc1ccc(C(C)(C)C)cc1)c1ccc(NS(C)(=O)=O)cc1 (centres undefined),> 100,0.15
CC(C)(C)c1ccc(C/N=C(\S)NC(c2ccccc2)c2ccc(NS(C)(=O)=O)cc2)cc1 (centres undefined),> 100,16.7
C[C@@H](/N=C(\S)NCc1ccc(C(C)(C)C)cc1)c1ccc(C(C)(C)C)cc1,> 100,3.49
CCC(/N=C(\S)NCc1ccc(C(C)(C)C)cc1)c1ccc(NS(C)(=O)=O)cc1 (centres undefined),> 100,0.36
CC[C@@H](/N=C(\S)NCc1ccc(C(C)(C)C)cc1)c1ccc(NS(C)(=O)=O)cc1,> 100,0.05
CC(C)C(/N=C(\S)NCc1ccc(C(C)(C)C)cc1)c1ccc(NS(C)(=O)=O)cc1 (centres undefined),> 100,3.24
C[C@@H](/N=C(\S)NCc1ccc(C(C)(C)C)cc1)c1ccc(N)cc1,> 100,3.3
